Where a SMILES comes first, the peptide text is derived from it. [ ]: non-standard residue; d: D form. The star is where a group is joined. Trp(1-Me) = Cn1cc(C[C@H](N)C(=O)O)c2ccccc21; Phe(3-Br) = N[C@@H](Cc1cccc(Br)c1)C(=O)O; dNMeW = CN[C@H](Cc1c[nH]c2ccccc12)C(=O)O; Fmoc = O=C(OCC1c2ccccc2-c2ccccc21)*; Aoc(2) = CCCCCC[C@H](N)C(=O)O; Ahp(2) = CCCCC[C@H](N)C(=O)O; Cbz = O=C(OCc1ccccc1)*

In assay [1] the target is T1, CCK-B receptors (CHO-CCK) (Homo sapiens, UniProt P32239).
T1 construct: expressed in transfected cells; host or cells: CHO (CHO-CCK model cells)
T1 sequence (P32239 1-447): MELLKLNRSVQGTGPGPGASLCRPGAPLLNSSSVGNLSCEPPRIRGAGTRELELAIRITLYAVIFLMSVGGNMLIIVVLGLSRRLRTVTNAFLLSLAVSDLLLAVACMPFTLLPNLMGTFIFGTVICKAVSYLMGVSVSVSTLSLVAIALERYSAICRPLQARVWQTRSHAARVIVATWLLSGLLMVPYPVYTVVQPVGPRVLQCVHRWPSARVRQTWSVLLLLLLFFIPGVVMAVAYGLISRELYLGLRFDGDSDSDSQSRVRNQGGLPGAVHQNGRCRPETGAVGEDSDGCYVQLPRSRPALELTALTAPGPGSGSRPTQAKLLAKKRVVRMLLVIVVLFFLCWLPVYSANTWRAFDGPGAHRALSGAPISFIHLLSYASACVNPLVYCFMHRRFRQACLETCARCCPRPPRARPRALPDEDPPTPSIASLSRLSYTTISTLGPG
Put plainly: Calcium flux (Fluo-8) agonist test on CHO-CCK model cells. The assay is classed as cell-based. To be noted: for Agonistic Activity (%) at 10 μM: compound at 10 μM, percentage of signal of 20 nM CCK8 alone. Put shortly:
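Agonist-mode Fluo-8 calcium flux read on CHO-CCK cells after dye loading 30 min at 37 °C plus 30 min at room temperature.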

In assay [2] the target is T1, CCK-B receptors (CHO-CCK). Put plainly: Calcium flux (Fluo-8) antagonist test on CHO-CCK model cells in presence of CCK8. In kind it is cell-based. On the procedure: The compound was formulated to a 10 mM mother liquor with DMSO, and then diluted into a series of 9 concentrations with a 3-fold gradient to form a 1000× stock solution. […] Prepare 1×Fluo-8 analysis buffer: mix 9 mL of HHBS, 1 mL of 10× Pluronic F127 Plus and 20 μL of Fluo-8 thoroughly for later use. • 3. Add Fluo-8 dye working solution to the cell plate, 100 μL/well. First incubate in a 37° C. incubator for 30 min, and then take it out and incubate at room temperature in the dark for 30 min. • 4. In the process of incubating cells, the compounds to be detected were prepared with HHBS. • 5. […] The agonism/antagonism EC50 of the compound can be obtained by plotting the fitting curve with the agonism/antagonism percentage as Y-axis and the concentration of the compound as X-axis.
On the technique in general: Calcium flux is commonly read through the fluorescence of an indicator in the cells.

The mark [3] stands for this setting: in presence of 10 nM CCK8, bound in μM.
[4] abbreviates: CHO-CCK cells, Fluo-8 calcium flux, 100% control = 20 nM CCK8.
[5] abbreviates: compound together with 10 nM CCK8.
Setting [6] is: CHO-CCK cells, compound alone, 100% = 20 nM CCK8.

On to `CCCC[C@H](NC(=O)[C@@H](Cc1cccc(Br)c1)NC(C)=O)C(=O)N[C@@H](CCC(=O)O)C(=O)N[C@@H](Cc1cccc(Br)c1)C(N)=O` [HT-237, Ac-Phe(3-Br)-Nle-Glu-Phe(3-Br)-NH2], for which the concentration for a half-maximal effect (EC50) (usually the midpoint of the concentration-response curve) in assay [1] (CHO-CCK cells, Fluo-8 calcium flux, bound in μM) was more than 10 µM; in assay [2] (setting [3]), more than 10 µM.
For the molecule `CCCC[C@H](NC(=O)[C@H](Cc1c[nH]c2ccccc12)NC(C)=O)C(=O)N[C@@H](CCC(=O)O)C(=O)N[C@@H](Cc1cn(C)c2ccccc12)C(N)=O` [HT-241, Ac-D-Trp-Nle-Glu-(1-Me-Trp)-NH2], the results for the EC50 in assay [1] (setting [4]) and in assay [2] (setting [3]) were 3.55 µM and more than 10 µM, respectively.
With `C[S+]([O-])CC[C@H](NC(=O)[C@H](N)Cc1c[nH]c2ccccc12)C(=O)N[C@@H](CC(=O)O)C(=O)N[C@@H](Cc1ccc(F)cc1)C(N)=O` (stereo partly drawn) [HT-53, D-Trp-Met(O)-Asp-Phe(4-F)-NH2], the “Agonistic Activity (%) at 10 μM” value in assay [1] was 30.00%. Moreover, the EC50 in assay [2] (setting [5]) was found to be 8.88 µM.
For `CC[C@H](C)[C@H](NC(=O)[C@H](CCC(=O)O)NC(=O)[C@H](CC(N)=O)NC(=O)[C@@H](NC(=O)[C@H](CC(C)C)NC(=O)[C@H](CCC(=O)O)NC(=O)[C@H](CO)NC(=O)[C@H](CCC(=O)O)NC(C)=O)[C@@H](C)O)C(=O)N1CCC[C@H]1C(=O)N[C@@H](C)C(=O)N[C@@H](CCC(=O)O)C(=O)N[C@H](Cc1c[nH]c2ccccc12)C(=O)N[C@@H](CCSC)C(=O)N[C@@H](CC(=O)O)C(=O)N[C@@H](Cc1cccc(Br)c1)C(N)=O` [HT-219, Ac-Glu-Ser-Glu-Leu-Thr-Asn-Glu-lle-Pro-Ala-Glu-D-Trp-Met-Asp-Phe(3-Br)-NH2] (Ac-ESELTNEIPAE[dW]MD[Phe(3-Br)]-NH2), the EC50 in assay [1] (setting [4]) stood at 0.327 µM; in assay [2] (in presence of 10 nM CCK8), 2.58 µM.
The corresponding values for `CCCCC[C@H](NC(=O)[C@@H](Cc1c[nH]c2ccccc12)N(C)C(=O)OCC1c2ccccc2-c2ccccc21)C(=O)N[C@@H](CC(=O)O)C(=O)N[C@@H](Cc1cccc(Br)c1)C(N)=O` [HT-258, Fmoc-(N-Me-Trp)-Pa-Asp-Phe(3-Br)-NH2] (Fmoc-[dNMeW][Ahp(2)]D[Phe(3-Br)]-NH2) are 0.0226 µM and 1.04 µM.
In the case of `CC(=O)N[C@H](Cc1c[nH]c2ccccc12)C(=O)N[C@@H](CCC(N)=O)C(=O)N[C@@H](CC(=O)O)C(=O)N[C@@H](Cc1cccc(Br)c1)C(N)=O` [HT-185, Ac-D-Trp-Gln-Asp-Phe(3-Br)-NH2], the results for the concentration giving a half-maximal response (EC50) in assay [1] (setting [6]) and in assay [2] (setting [5]) were 3.82 µM and 12 µM, respectively.
For the molecule `CSCC[C@H](NC(=O)[C@@H](CC(C)C)NC(C)=O)C(=O)N[C@@H](CC(=O)O)C(=O)N[C@@H](Cc1cccc(Br)c1)C(N)=O` [HT-183, Ac-D-Leu-Met-Asp-Phe(3-Br)-NH2] (Ac-[dL]MD[Phe(3-Br)]-NH2), the figures for the EC50 in assay [1] (setting [6]) and in assay [2] (setting [5]) were 4.46 µM and 9.41 µM, respectively.
As to `CSCC[C@H](NC(=O)[C@H](Cc1c[nH]c2ccccc12)NC(C)=O)C(=O)N[C@@H](CC(=O)O)C(=O)N[C@@H](CCC(=O)O)C(N)=O` [HT-197, Ac-Trp-Met-Asp-Gln-NH2], the EC50 in assay [2] (in presence of 10 nM CCK8) came out at 1.67 µM.
Consider `COC(=O)C[C@H](NC(=O)[C@H](CC[S+](C)[O-])NC(=O)[C@H](N)Cc1c[nH]c2ccccc12)C(=O)N[C@@H](Cc1ccc(F)cc1)C(N)=O` (stereo partly drawn) [HT-121, D-Trp-Met(O)-Asp(Ome)-Phe(4-F)-NH2], for which the “Agonistic Activity (%) at 10 μM” value in assay [1] stood at 10.99%.
On to `C[S+]([O-])CC[C@H](NC(=O)[C@H](N)Cc1c[nH]c2ccccc12)C(=O)N[C@@H](CC(=O)OCCNc1cccc2c(O)cccc12)C(=O)N[C@@H](Cc1ccccc1[N+](=O)[O-])C(N)=O` (stereo partly drawn) [HT-143, D-Trp-Met(O)-Asp(EDANS)-Phe(2-NO2)-NH2], for which the “Agonistic Activity (%) at 10 μM” value in assay [1] is 4.33%.
With `CCCCCC[C@H](NC(=O)[C@H](Cc1cn(C)c2ccccc12)NC(=O)OCc1ccccc1)C(=O)N[C@@H](CC(=O)O)C(=O)N[C@@H](Cc1cccc(Br)c1)C(N)=O` [HT-279, Cbz-(1-Me-Trp)-Oa-Asp-Phe(3-Br)-NH2] (Cbz-[Trp(1-Me)][Aoc(2)]D[Phe(3-Br)]-NH2), the “% Act-Ave @ 1 nM” value in assay [1] (compound at 1 nM, CHO-CCK cells) was −0.19%. Besides, in assay [1] (compound at 50 nM, CHO-CCK cells), the “% Act-Ave @ 50 nM” value came to 90.99%.

The values are drawn from patent publication US20240415918A1, “Polypeptide and its use as a CCK receptor agonist/antagonist” (Centre for Regenerative Medicine & Health, Hong Kong …, priority 2021, published 2024).
